Assay results published in publication PMC5164944 (Biochemical pharmacology, 2016).
pEC50, pIC50: −log10 of the molar value. Where two headings read alike, the source gives them in different places. Marks after values point to notes of the source that are not given here.

What was measured:
[1] = target: T1, CYP2D6 (Homo sapiens, UniProt P10635); assay: Reversible CYP2D6 inhibition in human liver microsomes; settings: for effect on CYP2D6 activity: 50 μM test concentration, HLM
[2] = Plasma protein binding by ultracentrifugation; assay type: in vitro ADME, human; settings: unbound fraction in plasma
[3] = system: CYP2D6 mRNA; assay: CYP2D6 mRNA in plated human hepatocytes; settings: for mean CYP2D6 mRNA levels, % of vehicle treated cells: three donors, 72 hours
[4] = system: CYP2D6 mRNA; assay: CYP2D6 mRNA downregulation in HepG2 cells; settings: for pEC50: read-out: EC50 of CYP2D6 mRNA downregulation, 72 hrs
[5] = system: CYP2D6 protein expression; assay: CYP2D6 protein expression in HepG2 cells; settings: 72 hrs; for effect on CYP2D6 protein expression: erythrohydrobupropion 5 μM, threohydrobupropion 20 μM, R,R-OH-bupropion 20 μM
[6] = target: T1, CYP2D6; assay: CYP2D6 activity in plated human hepatocytes; settings: after 72 hr treatment
[7] = Steady state plasma concentrations in subjects on chronic bupropion XL; settings: for Mean [I] (Range, n=5): 5 subjects, normalized to 300 mg/day bupropion dose
[8] = Media concentrations of bupropion and metabolites in plated human hepatocytes; settings: for Cmedia at 72 hr: 1 hr incubation after 71 hours treatment; for Cmedia at 1 hr: after 1 hr incubation without pretreatment; for concentration of metabolite formed in bupropion treated cells: plated human hepatocytes treated with bupropion 2.5 μM
[9] = female, human, 2.5 μM
[10] = system: CYP2D6 mRNA; assay: in vitro; settings: human
[11] = target: T1, CYP2D6; assay: CYP2D6 inhibition in human suspension hepatocytes
[12] = target: T1, CYP2D6; assay: Static prediction of in vivo reversible CYP2D6 inhibition; settings: for share of the predicted CYP2D6 inhibition in vivo caused by the compound: reversible inhibition only
[13] = Partitioning into human suspension hepatocytes; settings: 1 μM, 30 min, total concentrations
[14] = target: T1, CYP2D6; settings: from HepG2 Emax/EC50 and circulating concentrations, 300 mg/day bupropion
[15] = system: CYP2D6; settings: cited from earlier work
[16] = system: CYP3A4 mRNA; assay: CYP3A4 mRNA in plated human hepatocytes; assay type: cell-based; settings: 72 hours
[17] = cited from earlier work

T1 sequence (P10635 whole entry): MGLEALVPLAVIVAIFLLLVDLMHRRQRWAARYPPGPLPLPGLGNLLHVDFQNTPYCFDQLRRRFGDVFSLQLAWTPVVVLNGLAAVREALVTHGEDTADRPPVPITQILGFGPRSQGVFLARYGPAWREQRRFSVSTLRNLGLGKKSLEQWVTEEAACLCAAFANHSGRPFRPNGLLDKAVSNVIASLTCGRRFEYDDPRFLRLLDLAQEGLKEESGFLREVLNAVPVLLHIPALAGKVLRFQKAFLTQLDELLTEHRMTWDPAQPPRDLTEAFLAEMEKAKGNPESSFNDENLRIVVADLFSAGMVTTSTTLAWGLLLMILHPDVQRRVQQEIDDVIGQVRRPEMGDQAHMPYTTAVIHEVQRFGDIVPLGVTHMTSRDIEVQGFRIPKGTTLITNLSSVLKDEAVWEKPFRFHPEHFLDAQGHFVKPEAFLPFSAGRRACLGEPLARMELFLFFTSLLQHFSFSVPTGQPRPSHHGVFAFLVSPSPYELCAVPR

## CC(NC(C)(C)C)C(O)c1ccc(O)c(Cl)c1 (stereo not drawn) [threo-4′OH-bupropion, threo-4′-OH-hydrobupropion]
[1]
  effect on CYP2D6 activity: no effect

## C[C@@H]1NC(C)(C)CO[C@@]1(O)c1cccc(Cl)c1 [S,S-OH-bupropion]
[2]
  fu,p (S.D. n=3): 0.5±0.1
[3]
  % decrease in CYP2D6 mRNA at 72 hrs: 74%
  mean CYP2D6 mRNA levels, % of vehicle treated cells: 26%
[4]; 72 hrs
  maximum decrease in CYP2D6 mRNA: 85–88%
[4]
  pEC50: 6.70
[5]; 5 μM, western blot
  downregulation of CYP2D6 protein expression: > 50%
[6]
  Apparent Percent Inhibition at 72 hrs: 60 ± 11%
[7]; steady state plasma
  circulating concentration fold higher than S-bupropion: ~3 fold
  circulating concentration fold lower than threohydrobupropion: about 6 fold
  Mean [I] (Range, n=5): 0.39 ^* (0.26–0.67) μM
[8]; plated human hepatocytes
  Cmedia at 72 hr: 1.5 ± 0.2 µM
  Cmedia at 1 hr: 1.3 ± 0.1 µM

## CC(NC(C)(C)C)C(=O)c1cccc(Cl)c1 (stereo not shown) [Bupropion]
[9]; 71 h
  reduction of media concentration at the end of the pretreatment: 93%
[9]; 72 h
  Cmedia at 72 hr: 1.7 ± 0.5 µM
[10]
  EC50 at 72 h: 210 nM
[11]
  pIC50: 4.89

## C[C@@H](NC(C)(C)C)C(=O)c1ccc(O)c(Cl)c1 [4′OH-bupropion, 4′-OH-bupropion]
[7]; steady state plasma
  Mean [I] (Range, n=5): 0.01 µM
[1]
  effect on CYP2D6 activity: no effect

## C[C@H](NC(C)(C)C)C(=O)c1cccc(Cl)c1 [S-Bupropion, S-bupropion, reference compound]
[2]
  fu,p (S.D. n=3): 0.6±0.1
[7]; steady state plasma
  Mean [I] (Range, n=5): 0.08 ^* (0.02–0.11) μM

## CC(NC(C)(C)C)C(O)c1cccc(Cl)c1 (stereo not drawn) [Erythro-hydrobupropion, erythrohydrobupropion]
[2]
  fu,p (S.D. n=3): 0.7±0.1
[12]
  share of the predicted CYP2D6 inhibition in vivo caused by the compound: 9%
[3]
  % decrease in CYP2D6 mRNA at 72 hrs: 80%
  mean CYP2D6 mRNA levels, % of vehicle treated cells: 20%
[13]
  cell concentration fold higher than medium: 9 fold
[4]; 72 hrs
  maximum decrease in CYP2D6 mRNA: 85%
[4]
  pEC50: 5.95
[5]
  effect on CYP2D6 protein expression: slightly less effective
[6]
  Apparent Percent Inhibition at 72 hrs: 93 ± 1%
[7]; steady state plasma
  circulating concentration fold higher than S-bupropion: ~3 fold
  circulating concentration fold lower than threohydrobupropion: about 6 fold
  Mean [I] (Range, n=5): 0.29 (0.19–0.41) μM
[8]
  concentration of metabolite formed in bupropion treated cells: 80 nM
[8]; plated human hepatocytes
  Cmedia at 72 hr: 2.1 ± 0.3 µM
  Cmedia at 1 hr: 1.6 ± 0.1 µM
[14]
  predicted decrease in CYP2D6 mRNA if compound acted alone at steady state: 18%
[1]; based on IC50 values in HLM
  fold more potent CYP2D6 inhibitor than threohydrobupropion: ~10 fold

## C[C@H]1NC(C)(C)CO[C@]1(O)c1cccc(Cl)c1 [OH-bupropion, hydroxybupropion]
[13]
  cell concentration fold higher than medium: 11 fold
[8]
  concentration of metabolite formed in bupropion treated cells: 120 nM

## C[C@@H](NC(C)(C)C)C(=O)c1cccc(Cl)c1 [R-Bupropion, R-bupropion, reference compound]
[2]
  fu,p (S.D. n=3): 0.5±0.1
[7]; steady state plasma
  Mean [I] (Range, n=5): 0.22 (0.05–0.34) μM

## C[C@H](NC(C)(C)C)[C@@H](O)c1cccc(Cl)c1 [Threo-hydrobupropion, threohydrobupropion]
[2]
  fu,p (S.D. n=3): 1.0±0.1
[12]
  share of the predicted CYP2D6 inhibition in vivo caused by the compound: approximately 21%
[3]
  % decrease in CYP2D6 mRNA at 72 hrs: 82%
  mean CYP2D6 mRNA levels, % of vehicle treated cells: 18%
[13]
  cell concentration fold higher than medium: 11 fold
[4]; 72 hrs
  maximum decrease in CYP2D6 mRNA: 78%
[4]; based on EC50
  fold less potent in downregulating CYP2D6 mRNA than the other compounds: 10–50 fold
[4]
  pEC50: 5.00
[6]
  Apparent Percent Inhibition at 72 hrs: 92 ± 2%
[7]; average steady state plasma
  steady state concentration fold higher than erythrohydrobupropion: 7.2 fold
[7]; steady state plasma
  Mean [I] (Range, n=5): 2.1 (1.1–3.5) μM
[8]
  concentration of metabolite formed in bupropion treated cells: 1400 nM
[8]; plated human hepatocytes
  Cmedia at 72 hr: 8.2 ± 1.4 µM
  Cmedia at 1 hr: 7.1 ± 0.6 µM
[14]
  predicted decrease in CYP2D6 mRNA if compound acted alone at steady state: 14%

## CNCCCN1c2ccccc2CCc2ccccc21 [desipramine]
[15]
  fraction metabolized by CYP2D6 (fm): 90%

## C[C@H]1NC(C)(C)CO[C@]1(O)c1cccc(Cl)c1 [R,R-OH-bupropion]
[2]
  fu,p (S.D. n=3): 0.5±0.1
[12]
  fold higher I/Ki than S,S-OH-bupropion: 36 fold
  share of the predicted CYP2D6 inhibition in vivo caused by the compound: 65%
[16]
  change in CYP3A4 mRNA: significantly increased CYP3A4 mRNA
[17]; single dose AUCs
  R,R-OH-bupropion to S,S-OH-bupropion ratio: 44–65
[17]; single dose of bupropion
  circulating concentration fold higher than bupropion and S,S-OH-bupropion: up to 65 fold
[3]
  % decrease in CYP2D6 mRNA at 72 hrs: 72%
  mean CYP2D6 mRNA levels, % of vehicle treated cells: 28%
[4]; 5-50 μM, 72 hrs
  effect on CYP2D6 mRNA: weakest effect
[5]
  effect on CYP2D6 protein expression: no effect
[6]
  Apparent Percent Inhibition at 72 hrs: 83 ± 3%
[7]; steady state plasma
  steady state concentration ratio R,R-OH-bupropion / S,S-OH-bupropion: 13 fold
  Mean [I] (Range, n=5): 5.0 (3.0–9.4) μM
[8]; plated human hepatocytes
  Cmedia at 72 hr: 19 ± 3 µM
  Cmedia at 1 hr: 16 ± 1 µM
[8]; plated human hepatocytes, versus initial media concentration added
  reduction of media concentration at the end of the pretreatment: 33%
[1]; based on IC50 values in HLM
  fold more potent CYP2D6 inhibitor than S,S-OH-bupropion: 3 fold

## COc1ccc(C(CN(C)C)C2(O)CCCCC2)cc1 (stereo not shown) [venlafaxine]
[15]
  fraction metabolized by CYP2D6 (fm): 80%
